Read-outs that look alike come from different tables or passages of the source.
Legend:
[1] = On-chip SPE-nanoLC-MS quantification of PFCs in human blood samples
Protocol: Standard stock PFCs solutions are prepared by diluting PFC standards (a list of which is shown in Table 2) in methanol in polypropylene vials. All glassware is rinsed with methanol before use. For plasma samples spiked with PFCs, frozen pooled human plasma is obtained from Innovative Research Inc. (Novi, Mich.). A 5 microliter aliquot of human plasma is thawed and mixed with 2.5 microliters of internal standards (^13C8-PFOA and ^13C8-PFOS, 50 ng/ml), 2.5 microliters of PFC standards with desired concentration, and 20 microliters of cold acetonitrile with 0.1% formic acid. After vortexing for 2 min, the mixture is sonicated for 10 min and then centrifuged at 14,000 g for 15 min. 24 microliters of the supernatant is taken out and allowed to evaporate at room temperature until the volume is reduced to around 16 microliters. All samples are stored in polypropylene vials at minus 20 degree Celsius. Standard Reference Materials (SRMs) 1950 Metabolites in Human Plasma ordered from National Institute of Standards and Technology (NIST) are stored at minus 80 degree Celsius before use. NIST SRM 1950 is thawed at room temperature and prepared by the same procedure as pooled plasma samples for validation of the chip performance.
The SPE run starts with conditioning a C18-packed SPE column by flowing 20 microliters of LC solvent B (95%/5% methanol/H2O with 2 mM ammonium acetate) at 10 microliters/min through the inlet port P1. The column is then equilibrated with 20 microliters of LC solvent A (5%/95% methanol/H2O with 2 mM ammonium acetate) at 10 microliters/min. Four microliters of the sample (containing lmicroliters of plasma) are injected into a 20-microliter sample loop and loaded onto the SPE column, followed by washing with 20 microliters of LC solvent A at 10 microliters/min. Next, the analytes are eluted from the SPE column with LC solvent B at 1 microliter/min and transferred to the trap column by mixing it with another stream of LC solvent A through the port P3 (20 microliters/min). The passive microfluidic mixer including herringbone structures enables efficient mixing of two streams and thus prevents heterogeneous streaming of organic solvent from the SPE eluent, allowing the analytes to be enriched on the trap column efficiently. Finally the HPLC gradient elution at flow rate of 600 nl/min is run to separate the analytes that are to be analyzed by nanoESI-MS. The LC solvent A consists of 5%/95% methanol/H2O with 2 mM ammonium acetate, and solvent B consists of 95%/5% methanol/H2O with 2 mM ammonium acetate. […] After that, it is increased to 95% B in 5 minutes and held at 95% B for 5 minutes. Finally it returns to the initial condition (10% B) in 2 minutes and is held for 5 minutes. The total time period for each SPE-LC-MS run is about one hour. Negative-ion-mode MS detection are performed on a hybrid quadrupole/orthogonal Q-TOF API US mass spectrometer (Waters Corp.). The capillary voltage and cone voltage are set to −2.4 kV and 25 V, respectively, and the collision energy is fixed at 10 eV. The nanoelectrospray process on emitters is visualized and monitored using a Waters nanoflow camera kit equipped with a MLH-10 Zoom lenses (Computar).
The raw LC-MS data are processed using MassLynx 4.0 software package provided with the Q-TOF API US instrument (Waters Corp.). Extracted ion chromatograms (EIC) for all target analytes are generated using their corresponding precursor/product ions with a mass window of 0.10 Da. The peak area ratio of each analyte relative to its corresponding isotope-labelled internal standard is used for quantification. For perfluorocarboxylate compounds, their product ions are used for quantitation, because their product ions are more abundant (3-5 times) than precursor ions under current MS settings. The abundance ratio between the product ion and precursor ion for each perfluorocarboxylate compound is found to be consistent over the wide concentration range (1-100 ng/ml). […]

[2] = NIST SRM 1950 human plasma; reference value provided by NIST; cited from earlier work
[3] = U.S. population of 20 years and older, cited from earlier work
[4] = molecular target: human serum albumin (HSA) (Homo sapiens, UniProt P02768); conditions: cited from earlier work
[5] = NIST SRM 1950 human plasma, SPE-LC-MS chip
[6] = pooled human plasma, SPE-LC-MS chip

human serum albumin (HSA), sequence (P02768 25-609): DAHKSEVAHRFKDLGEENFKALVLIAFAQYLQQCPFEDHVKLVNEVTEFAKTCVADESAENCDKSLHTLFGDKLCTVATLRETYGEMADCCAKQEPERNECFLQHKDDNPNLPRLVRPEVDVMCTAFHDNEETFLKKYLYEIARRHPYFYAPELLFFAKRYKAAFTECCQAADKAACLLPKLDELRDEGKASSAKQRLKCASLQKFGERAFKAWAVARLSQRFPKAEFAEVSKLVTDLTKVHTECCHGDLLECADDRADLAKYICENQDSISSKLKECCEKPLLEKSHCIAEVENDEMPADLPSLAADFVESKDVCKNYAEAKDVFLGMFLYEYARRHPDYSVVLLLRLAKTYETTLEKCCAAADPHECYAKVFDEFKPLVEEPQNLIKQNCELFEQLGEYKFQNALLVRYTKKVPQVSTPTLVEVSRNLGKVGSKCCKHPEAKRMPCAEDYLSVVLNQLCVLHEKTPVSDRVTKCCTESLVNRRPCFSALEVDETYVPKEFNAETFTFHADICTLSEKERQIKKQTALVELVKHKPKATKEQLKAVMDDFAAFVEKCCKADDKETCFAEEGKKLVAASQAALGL

SMILES | Concentration of PFCs, NIST SRM 1950, Measured Value [1, 5] [ng/mL] | Concentration of PFCs, Pooled plasma, Measured Value [1, 6] [ng/mL] | Concentration of PFCs, NIST SRM 1950, Reference Value [2] [ng/mL] | Individual serum, National Exposure Report by CDC, geometric mean (95% confidence interval) ([3]; survey year 2009-2010) | Individual serum, National Exposure Report by CDC, geometric mean (95% confidence interval) ([3]; survey year 2011-2012) | number of PFOA binding sites to human serum albumin (HSA) [4] | PFOA bound to HSA in human blood ([4]; human blood) | Concentration of PFCs, NIST SRM 1950, Measured Value ([1]; human) [ng/mL] | Concentration of PFCs, Pooled plasma, Measured Value ([1]; human) [ng/mL]
O=C(O)C(F)(F)C(F)(F)C(F)(F)C(F)(F)C(F)(F)C(F)(F)C(F)(F)C(F)(F)C(F)(F)F [PFDeA, Perfluorodecanoic acid] | 0.364 ± 0.033 | 0.279 | 0.322 ± 0.007 | 0.289 (0.265-0.314) ng/ml | 0.209(0.189-0.230) ng/ml |  |  |  | 
O=S(=O)(O)C(F)(F)C(F)(F)C(F)(F)C(F)(F)C(F)(F)C(F)(F)F [PFHxS, Perfluorohexane sulfonic acid] | 3.53 ± 0.38 | 1.18 | 3.25 ± 0.080 | 1.61 (1.45-1.79) ng/ml | 1.28 (1.14-1.43) ng/ml |  |  |  | 
O=C(O)C(F)(F)C(F)(F)C(F)(F)C(F)(F)C(F)(F)C(F)(F)C(F)(F)F [PFOA, Perfluorooctanoic acid] |  |  |  |  |  | over 6 | more than 90% |  | 
O=S(=O)(O)C(F)(F)C(F)(F)C(F)(F)C(F)(F)C(F)(F)C(F)(F)C(F)(F)C(F)(F)F [PFOS, Perfluorooctane sulfonic acid] | 11.1 ± 0.36 | 4.76 | 10.6 ± 0.13 | 9.72 (8.45-11.2) ng/ml | 6.71 (6.24-7.20) ng/ml |  |  |  | 
NS(=O)(=O)C(F)(F)C(F)(F)C(F)(F)C(F)(F)C(F)(F)C(F)(F)C(F)(F)C(F)(F)F [PFOSA, Perfluorooctane sulfonamide] |  |  |  | <0.1; <0.1 ng/ml | <0.1; <0.1 ng/ml |  |  | 0.172 ± 0.078 | 0.094

Reference: patent US10627395B2, “Methods and systems for biomonitoring” (Newomics Inc., priority 2015, dated 2020)
